Drawing on a melting point compilation (Tetko et al.; mined from patent text by program, amines drawn as free bases though some values may be those of a salt), this text covers melting point for 90 molecules.

A word on the melting point: it is the temperature of the solid-liquid transition.

As to `CC(C)(S)C(O)(Cn1cncn1)c1ccc(F)cc1F` (single isomer, unassigned; (-)), the melting point stood at 105 °C.

As for `C=CCOc1ccc(-c2nc3cnccc3[nH]2)c(OC(C)C)c1`, the melting point was determined as 179 °C. To `CCOC(=O)[C@H](CSCc1ccccc1)NC(=O)C(C)(C)NC(=O)[C@@H](S)C(C)C` belongs 87 to 91 °C; to `CC(C)(C)OC(=O)N1CCn2c(-c3ccccc3)cc(C(N)=O)c2C1`, 208 to 210 °C; to `Cn1cc(CC(=O)O)c2cc(-c3ccc(C(F)(F)F)cc3)ccc21`, 167 to 168 °C. The same measure for `Cc1cccc(-n2c(-c3cc(-c4ccc(Cl)cc4)c(N4CCOCC4)s3)nc3ccccc3c2=O)c1`: 228 to 230 °C; for `NC(=O)N(O)Cc1cc(Br)cs1`: 162 to 164 °C; for `CCC(=CC(CNC(C)=O)=NO)C(C)[N+](=O)[O-]` (stereo not given): 124 to 125 °C. The same measure for `N#CSCC(=O)N1CCCCC1`: 78 to 79 °C. The molecule `COc1cc(OC)c(C(=O)C=CC(=O)O)cc1OC` yielded a melting point of 207 to 208 °C. The same measure for `O=[N+]([O-])c1cc2nc(Cl)c(Cl)nc2cc1Sc1ncc[nH]1`: > 300 °C; for `CSc1nc(-c2nn[nH]n2)c(I)c(C(F)(F)F)n1`: 196 to 200 °C; for `CC=Cc1ccc2c(c1)C(=O)N(c1ccc(C(C)C(=O)OC(C)(C)C)cc1)C2` (stereo not given): 125 to 130 °C. Molecule `Fc1cc(Cl)c2ccc(C(F)(F)F)cc2n1` registered a melting point of 94 to 95 °C. The same measure for `COc1ccc(-c2ccc3cc(C(=O)O)ccc3c2)cc1`: 267 to 269 °C. Take `Cc1cc(C(=O)N2Cc3cccn3Cc3ccccc32)ccc1C1=CC(=O)CCC1`: the melting point is 176 to 177 °C. The same measure for `O=C(O)c1ccc(S(=O)(=O)CCO)c([N+](=O)[O-])c1`: 190 to 192 °C; for `CC(=O)NC(Cc1ccccc1)C(O)C(Cc1ccccc1)NC(C)=O` (stereo not given): 125 to 126 °C. The same measure for `CCCc1ccc(C(=O)Nc2ccc(C(C)=O)cc2)cc1`: 174 to 176 °C; for `Cc1ccc(S(=O)(=O)NCCCn2c(CCO)nc3c(N)nc4ccccc4c32)cc1`: 231 to 232 °C. The same measure for `O=[N+]([O-])c1ccc2nc(-c3cccs3)oc2c1`: 208 to 210 °C. As to `CCNc1cccnc1N1CCN(C(=O)c2ccc(C(=O)NC(C)(C)CO)cn2)CC1`, the melting point was in the range of 128 to 130 °C. In turn, `CCc1noc(C)c1-c1[nH]c2ccccc2c1CC(N)=O` registered a melting point of 194 to 195 °C. The same measure for `CC1(c2ccccc2)CCC(=O)C=C1C(=O)O` (racemic): 206 °C; for `CC(C)(O)Cn1c(CO)nc2c(N)nc3cccnc3c21`: 235 to 237 °C. To `Cn1nc(-c2ccccc2)c(Oc2ccc([N+](=O)[O-])cc2)c1-c1ccccc1` belongs 85 to 110 °C; to `Cc1cccc2c(=O)nc(-c3cccc(C(=O)NCCCCCCNC(=O)OC(C)(C)C)n3)sc12`, 171 to 172 °C; to `N#Cc1ccc(C(=O)NC2CCCNC(=O)C2)cc1` (stereo not given), 189 to 190 °C. `CCOP(=O)(/C=C/c1cn(-c2ccccc2)nc1OCc1ccc(OCc2nc(-c3ccc(C(N)=O)cc3)oc2C)c(OC)c1)OCC` came in with a melting point of 146 to 148 °C.

`COc1ccc(C2=Nc3ccc(N4CCOCC4)cc3C(=O)C2)cc1` gave a melting point of 302 to 304 °C. For the molecule `CC1CCN(c2cc3nc(C(C)(C)C)sc3cc2[N+](=O)[O-])CC1`, the melting point fell in the range of 116 to 120 °C. `CCN(C(=O)n1nnc2cc(C)ccc21)c1ccccc1` had a melting point of 42 to 43 °C. `COc1ccc(-c2n[nH]c3c2C(O)c2ccccc2-3)cc1OC` (stereo not given): the melting point fell in the range of 197 to 199 °C.

In turn, `Cc1ccc(C(=O)c2cccc(C)c2N)cc1` came in with a melting point of 77 to 78 °C. The same measure for `COc1cc2ncc(C#N)c(Nc3ccc(F)cc3)c2cc1OC`: 282 to 285 °C; for `Oc1ccc(Cc2ccccc2)c2cccnc12`: 112 to 113 °C. The same measure for `CCOC(=O)c1cc(S)n2nc(C)nc2n1`: 234 to 236 °C; for `Cc1cccc2[nH]c(Nc3ccc(C(=O)O)cc3)nc12`: 375 to 378 °C. The molecule `COc1cc(Nc2nccc(-c3sc(NCCc4ccccc4)nc3C)n2)cc(OC)c1OC` showed a melting point of 184 to 186 °C. The same measure for `OC1CSC(Oc2ccc(-c3ccc(Cl)nc3)nc2)C(O)C1O` (stereo not given): 170 °C; for `COC(=O)Cc1c(C)n(-c2ccnc3ccccc23)c2ccc(OC)cc12`: 103 to 105 °C; for `CC(=O)OCCCOc1ccc([N+](=O)[O-])c(C=C2NC(=O)NC2=O)c1`: 94 to 130 °C.

Molecule `O=C1CCC(c2ccc(OCC3CO3)c3ccccc23)=NN1` (stereo not given) returned a melting point of 151 to 155 °C. To `CC12CCC3C(CCC4C(=O)CCCC43C)C1CCC2OC1CCCCO1` (stereo not given) belongs 123 to 126 °C; to `O=c1cc(N2CCOCC2)oc2cc(OCc3ccccc3)ccc12`, 170 to 172 °C; to `CCCCCCCCCCCC#Cc1ccccc1C=CP(=O)(O)O`, 82 to 83 °C. To `Cc1nc2cc(-n3cccc3)ccc2s1` belongs 91 to 96 °C; to `CS(=O)(=O)c1ccc(-c2cc(C(F)F)nn2-c2ccc(S(N)(=O)=O)cc2)cc1`, 209 to 210 °C.

For `COc1cc(C(=O)N2Cc3ccc(C(=O)N(C)CC(O)CO)n3Cc3ccccc32)ccc1-c1ccccc1C(F)(F)F` (stereo not given), the melting point was 119 to 123 °C.

Turning to `O=C1N(CC2CCCO2)c2ccccc2C12COc1cc3c(cc12)OCCO3` (stereo not given), the melting point was in the range of 174 to 176 °C.

`CC(=O)OC1C(C)OC(n2cc(F)c(=O)[nH]c2=O)C1OC(C)=O` (stereo not given) showed a melting point of 176 to 177 °C. The same measure for `Cc1cc(Cl)nc(N(C(N)=O)c2ccccc2[N+](=O)[O-])n1`: 155 °C.

The molecule `Cc1cccc(C)c1N1CCCNC1=S` registered a melting point of 249 to 251 °C.

The molecule `CC(=O)c1ccc2c(c1)C(c1ccccc1F)=NC(C)C(=O)N2` (stereo not given) gave a melting point of 203 °C. The same measure for `Cc1cc(C2=NCCc3ccccc32)n(C)n1`: 112 °C; for `COc1cc2c(c3c1OC(C)(C)C3)C(c1cccc(NC(=O)NCCCl)c1)=NC(C)(C)C2`: 147 to 150 °C; for `CCCn1cnc2c1c1nnc(-c3ccncc3)n1c(=O)n2CCC`: 194 to 199 °C. `Nc1cccc(Sc2ccc3c(c2)OCC(=O)N3)c1`: the melting point is 181 to 182 °C. The same measure for `Cc1ccc(C(=O)/C(=C\c2ccccc2)C(=O)OC(C)(C)C)c(O)c1`: 92 to 95 °C; for `CCOC1CCC(=O)N1S(=O)(=O)c1ccc(N)cc1` (stereo not given): 185 to 186 °C. To `O=C(Nc1ccc(Cl)nc1)c1cccc(Cl)c1` belongs 227 to 229 °C.

In turn, `COc1cc(Nc2c(C#N)cnc3cc(Br)ccc23)c(Cl)cc1C` yielded a melting point of 215 to 217 °C.

Regarding `Cc1ccc(C(=O)NCCCCOc2ccc(-n3ccnc3)cc2)cc1`, the melting point lay within 128 to 130 °C. `CN(C)CCc1cccc(OCCNc2nc(N)nn2C)c1` displayed a melting point of 72 °C.

Molecule `Nc1sc2c(c1C(=O)c1cccs1)CCN(Cc1ccccc1)C2` returned a melting point of 122 to 123 °C. To `CC(C)C(NS(=O)(=O)c1ccc(-c2ccccc2)cc1)C(=O)O` (stereo not given) belongs 164 to 166 °C; to `CN1CCN2C(=O)Nc3ccc(Cl)cc3C12c1ccccc1` (stereo not given), 270 to 271 °C; to `O=C(O)CS(=O)(=O)c1ccc2c(-c3ccccc3F)noc2c1Cl`, 204 °C. The molecule `N#CNC(=N)NC1CCCc2ccccc21` (stereo not given) registered a melting point of 153 to 155 °C.

`Cc1nc(N)nc(N)c1-c1cc(C#N)ccc1Cl` registered a melting point of 239 to 241 °C. The same measure for `S=C(SCc1ccccc1)N1CC2CCC(CC2)C1`: 98 to 99 °C; for `Cc1cn(-c2ccc(N)cc2)cn1`: 122 to 125 °C; for `Cc1nc2c(s1)C(=O)C(=CN1CCOCC1)CC2`: 186 to 187 °C. For `CCOC(=O)N1CCN(C2=Nc3ccccc3Nc3ccsc32)CC1`, the melting point turned out to be 166 °C. To `COc1cc(Cl)c(-n2nnc3c(-c4ccccc4C)nc(C)nc32)c(OC)c1` belongs 173 to 174 °C; to `CC12CCC3c4ccc(O)c([N+](=O)[O-])c4CCC3C1CCC2=O` (stereo not given), > 250 °C; to `O=[N+]([O-])C1NC=CN1c1ccncc1` (stereo not given), 234 °C.

Take `NS(=O)(=O)c1ccc(-c2cscc2-c2ccc(F)cc2)cc1`: the melting point was 194 to 195 °C.

The molecule `COC(=O)[C@H](Cc1ccc(CC(=O)O)cc1)NC(=O)OC(C)(C)C` gave a melting point of 141 to 143 °C. The same measure for `O=C1CCCC2=C1C(c1cccc(F)c1)C1=C(CCCC1)N2` (stereo not given): 249 to 251 °C; for `CCOC(=O)c1ccc(NCc2nccnc2OCc2ccccc2)cc1`: 112 °C; for `C[C@H](NC(=O)Cc1cc(F)cc(F)c1)C(=O)N[C@@H]1C(=O)NCCS[C@@H]1c1ccccc1`: 128 to 133 °C.

`O=C(NCC12CC3CC(CC(C3)C1)C2)c1cc(-c2ccccc2C(=O)O)ccc1Cl` gave a melting point of 228 to 230 °C. To `CC(C)n1nc(-c2sc(NC(=O)c3ccc(CNCCN4CCOCC4)cc3)nc2-c2ccccc2)ccc1=O` belongs 86 to 88 °C. The same measure for `Cc1cc(N)c(C)c(Cl)c1Oc1ccc(C(=O)c2ccc(Cl)cc2)cc1`: 113 to 122 °C; for `CC(C)CCCC(C)C1CCC2C3CCC4CC(NC(=O)C(COCc5ccccc5)NC(=O)OC(C)(C)C)CCC4(C)C3CCC12C` (stereo not given): 55 to 67 °C.

The molecule `O=C1NC(=O)c2c(Sc3ccc(Cl)cc3)c(Sc3ccc(Cl)cc3)c(Sc3ccc(Cl)cc3)c(Br)c21` showed a melting point of 164 to 169 °C. The molecule `CC(C)c1ccccc1-n1c(=O)[nH]c2c(C(N)=O)nc(-c3ccc(-c4nc[nH]n4)cc3)nc21` registered a melting point of 368 °C. To `Cc1cc(Br)ccc1N=CN(C)SN(C)C=Nc1ccc(Br)cc1C` belongs 127 to 129 °C; to `COc1ccc(C(=O)c2ccc(C)cc2)cc1C`, 73 to 75 °C.
